# How the values were obtained:
# HN = assay: cells; format: functional, cell-based; settings: Homo sapiens
# Description: SANGER: Inhibition of human HN cell growth in a cell viability assay.
# HPAF-II = assay: cells; format: functional, cell-based; settings: Homo sapiens;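 also: growth inhibition of HPAF-II cells, read out with a cell viability assay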
# Description: SANGER: Inhibition of human HPAF-II cell growth in a cell viability assay.
# T98G = assay: cells; format: functional, cell-based; settings: Homo sapiens;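 also: growth inhibition of T98G cells, read out by a cell viability assay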
# Description: SANGER: Inhibition of human T98G cell growth in a cell viability assay.
# DBTRG-05MG = assay: cells; format: functional, cell-based; settings: Homo sapiens;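 also: cell viability assay measuring growth inhibition of human DBTRG-05MG cells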
# Description: SANGER: Inhibition of human DBTRG-05MG cell growth in a cell viability assay.
# EW-24 = assay: cells; format: functional, cell-based, Homo sapiens; settings: Homo sapiens, EW-24;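 also: human EW-24 cancer cell line, growth inhibition read out via a cell viability assay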
# Description: SANGER: Inhibition of human EW-24 cell growth in a cell viability assay.
# NCI-H1693 = assay: cells; format: functional, cell-based; settings: Homo sapiens;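 also: growth inhibition of the human cell line, read out with a cell viability assay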
# Description: SANGER: Inhibition of human NCI-H1693 cell growth in a cell viability assay.
# LU-99A = assay: cells; format: functional, cell-based; settings: Homo sapiens;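 also: growth inhibition of LU-99A cells, read out with a cell viability assay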
# Description: SANGER: Inhibition of human LU-99A cell growth in a cell viability assay.
# ST486 = assay: SANGER: Inhibition of human ST486 cell growth in a cell viability assay.; format: functional, cell-based; settings: Homo sapiens, ST486
# COR-L23 = assay: cells; format: functional, cell-based; settings: Homo sapiens;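 also: cell viability assay measuring how strongly compounds suppress growth of COR-L23 cells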
# Description: SANGER: Inhibition of human COR-L23 cell growth in a cell viability assay.
# CAL-85-1 = assay: cells; format: functional, cell-based; settings: Homo sapiens;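 also: growth inhibition of human CAL-85-1 cells, read out with a cell viability assay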
# Description: SANGER: Inhibition of human CAL-85-1 cell growth in a cell viability assay.
# PC-14 = assay: cells; format: functional, cell-based; settings: Homo sapiens;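 also: cell viability assay measuring inhibition of PC-14 cell growth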
# Description: SANGER: Inhibition of human PC-14 cell growth in a cell viability assay.
# NCI-H1993 = assay: cells; format: functional, cell-based; settings: Homo sapiens;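 also: growth inhibition of the cancer cell line, assessed with a cell viability assay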
# Description: SANGER: Inhibition of human NCI-H1993 cell growth in a cell viability assay.
# COLO-792 = assay: cells; format: functional, cell-based; settings: Homo sapiens
# Description: SANGER: Inhibition of human COLO-792 cell growth in a cell viability assay.
# 786-0 = assay: cells; format: functional, cell-based; settings: Homo sapiens
# Description: SANGER: Inhibition of human 786-0 cell growth in a cell viability assay.
# KYSE-180 = assay: cells; format: functional, cell-based; settings: Homo sapiens;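 also: growth inhibition of KYSE-180 cells, read out with a cell viability assay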
# Description: SANGER: Inhibition of human KYSE-180 cell growth in a cell viability assay.
# KU-19-19 = assay: cells; format: functional, cell-based; settings: Homo sapiens
# Description: SANGER: Inhibition of human KU-19-19 cell growth in a cell viability assay.
# SW756 = assay: cells; format: functional, cell-based; settings: Homo sapiens;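 also: growth inhibition of human SW756 cells, read out with a cell viability assay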
# Description: SANGER: Inhibition of human SW756 cell growth in a cell viability assay.
# SW626 = assay: cells; format: functional, cell-based; settings: Homo sapiens;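 also: growth inhibition of SW626 cells, measured with a cell viability assay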
# Description: SANGER: Inhibition of human SW626 cell growth in a cell viability assay.
# Panc1005 = assay: cells; format: functional, cell-based; settings: Homo sapiens;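 also: growth inhibition of human PANC-10-05 cells, measured by a cell viability assay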
# Description: SANGER: Inhibition of human PANC-10-05 cell growth in a cell viability assay.
# MIA PaCa-2 = assay: cells; format: functional, cell-based; settings: Homo sapiens;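 also: growth inhibition of MIA PaCa-2 cells, read out with a cell viability assay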
# Description: SANGER: Inhibition of human MIA-PaCa-2 cell growth in a cell viability assay.
# JIYOYE = assay: cells; format: functional, cell-based, Homo sapiens; settings: Homo sapiens, JIYOYE
# Description: SANGER: Inhibition of human JiyoyeP-2003 cell growth in a cell viability assay.
# SK-MEL3 = assay: cells; format: functional, cell-based, SK-MEL-3; settings: Homo sapiens;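 also: growth inhibition of human SK-MEL-3 cells, read out with a cell viability assay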
# Description: SANGER: Inhibition of human SK-MEL-3 cell growth in a cell viability assay.
# Daoy = assay: cells; format: functional, cell-based; settings: Homo sapiens;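 also: daoy cell growth inhibition, read out as cell viability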
# Description: SANGER: Inhibition of human Daoy cell growth in a cell viability assay.
# D-392MG = assay: cells; format: functional, cell-based; settings: Homo sapiens
# NCI-H1963 = assay: cells; format: functional, cell-based, Homo sapiens; settings: Homo sapiens, NCI-H1963;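 also: cell growth inhibition of the human line, determined with a cell viability assay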
# Description: SANGER: Inhibition of human NCI-H1963 cell growth in a cell viability assay.
# HT-29 = assay: cells; format: functional, cell-based; settings: Homo sapiens;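 also: growth inhibition of human HT-29 cells, read out by a cell viability assay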
# Description: SANGER: Inhibition of human HT-29 cell growth in a cell viability assay.
# LCLC-103H cell line = assay: cells; format: functional, cell-based; settings: Homo sapiens
# Description: SANGER: Inhibition of human LCLC-103H cell growth in a cell viability assay.
# MEL-HO = assay: cells; format: functional, cell-based; settings: Homo sapiens
# Description: SANGER: Inhibition of human MEL-HO cell growth in a cell viability assay.
# 8305C = assay: cells; format: functional, cell-based; settings: Homo sapiens
# Description: SANGER: Inhibition of human 8305C cell growth in a cell viability assay.
# SAOS-2 = assay: cells; format: functional, cell-based; settings: Homo sapiens;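 also: growth inhibition of human Saos-2 cells determined by a cell viability assay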
# Description: SANGER: Inhibition of human Saos-2 cell growth in a cell viability assay.
# SK-MEL-30 = assay: cells; format: functional, cell-based; settings: Homo sapiens;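 also: growth inhibition of SK-MEL-30 cells, determined with a cell viability assay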
# Description: SANGER: Inhibition of human SK-MEL-30 cell growth in a cell viability assay.
# NCI-H1573 = assay: cells; format: functional, cell-based; settings: Homo sapiens;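 also: growth inhibition of NCI-H1573 cells, read out with a cell viability assay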
# Description: SANGER: Inhibition of human NCI-H1573 cell growth in a cell viability assay.
# NCI-H1703 = assay: cells; format: functional, cell-based; settings: Homo sapiens;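 also: growth inhibition of NCI-H1703 cells, read out via a cell viability assay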
# Description: SANGER: Inhibition of human NCI-H1703 cell growth in a cell viability assay.
# EFO-21 = assay: cells; format: functional, cell-based; settings: Homo sapiens;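 also: growth inhibition of EFO-21 cells measured with a viability assay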
# Description: SANGER: Inhibition of human EFO-21 cell growth in a cell viability assay.
# C3A = assay: cells; format: functional, cell-based; settings: Homo sapiens;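 also: growth inhibition of C3A human cells, quantified with a cell viability readout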
# Description: SANGER: Inhibition of human C3A cell growth in a cell viability assay.
# KP-4 = assay: cells; format: functional, cell-based; settings: Homo sapiens;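 also: human KP-4 cells, with growth inhibition read out through a cell viability assay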
# Description: SANGER: Inhibition of human KP-4 cell growth in a cell viability assay.
# EFM-19 = assay: cells; format: functional, cell-based; settings: Homo sapiens;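 also: growth inhibition of human EFM-19 cells, measured in a cell viability assay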
# Description: SANGER: Inhibition of human EFM-19 cell growth in a cell viability assay.
# U2OS = assay: cells; format: functional, cell-based, U-2-OS; settings: Homo sapiens;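 also: growth inhibition of human U-2-OS cells, determined with a cell viability assay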
# Description: SANGER: Inhibition of human U-2-OS cell growth in a cell viability assay.
# S-117 = assay: cells; format: functional, cell-based; settings: Homo sapiens
# Description: SANGER: Inhibition of human S-117 cell growth in a cell viability assay.
# NCI-H2009 = assay: cells; format: functional, cell-based; settings: Homo sapiens;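 also: cell viability assay measuring inhibition of NCI-H2009 cell growth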
# Description: SANGER: Inhibition of human NCI-H2009 cell growth in a cell viability assay.
# NCI-H748 = assay: cells; format: functional, cell-based, Homo sapiens; settings: Homo sapiens, NCI-H748;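 also: growth inhibition of NCI-H748 cells, measured by a cell viability assay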
# Description: SANGER: Inhibition of human NCI-H748 cell growth in a cell viability assay.
# HOP-92 = assay: cells; format: functional, cell-based; settings: Homo sapiens;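 also: cell viability readout, with IC50 reflecting inhibition of HOP-92 cell growth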
# Description: SANGER: Inhibition of human HOP-92 cell growth in a cell viability assay.
# HEC-1 = assay: cells; format: functional, cell-based; settings: Homo sapiens;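 also: growth inhibition of the cell line, read out with a cell viability assay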
# Description: SANGER: Inhibition of human HEC-1 cell growth in a cell viability assay.
# Hs-578T = assay: cells; format: functional, cell-based; settings: Homo sapiens
# Description: SANGER: Inhibition of human Hs-578-T cell growth in a cell viability assay.
# EVSA-T = assay: cells; format: functional, cell-based, Homo sapiens; settings: Homo sapiens, EVSA-T;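 also: growth inhibition of EVSA-T cells, read out with a cell viability assay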
# Description: SANGER: Inhibition of human EVSA-T cell growth in a cell viability assay.
# DOK = assay: cells; format: functional, cell-based; settings: Homo sapiens;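 also: cell viability assay read-out, values reflect inhibition of cell growth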
# Description: SANGER: Inhibition of human DOK cell growth in a cell viability assay.
# C-33-A = assay: cells; format: functional, cell-based; settings: Homo sapiens;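 also: cell viability assay measuring growth inhibition of C-33-A cells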
# Description: SANGER: Inhibition of human C-33-A cell growth in a cell viability assay.
# KYSE-450 = assay: cells; format: functional, cell-based; settings: Homo sapiens;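 also: cell growth inhibition measured by a viability assay in human KYSE-450 cells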
# Description: SANGER: Inhibition of human KYSE-450 cell growth in a cell viability assay.
# MKN-28 = assay: cells; format: functional, cell-based; settings: Homo sapiens;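 also: cell viability assay read-out, IC50 reflects suppression of growth of human MKN-28 cells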
# Description: SANGER: Inhibition of human MKN28 cell growth in a cell viability assay.
# TE-15 = assay: cells; format: functional, cell-based, Homo sapiens; settings: Homo sapiens, TE-15;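 also: cell viability readout of growth inhibition in TE-15 cells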
# Description: SANGER: Inhibition of human TE-15 cell growth in a cell viability assay.
# MDA-MB-361 = assay: cells; format: functional, cell-based; settings: Homo sapiens
# FaDu = assay: cells; format: functional, cell-based; settings: Homo sapiens;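 also: cell viability readout of growth inhibition in FaDu cells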
# Description: SANGER: Inhibition of human FADU cell growth in a cell viability assay.
# Huh-7 = assay: cells; format: functional, cell-based; settings: Homo sapiens;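 also: HuH-7 cell growth inhibition, read out with a cell viability assay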
# Description: SANGER: Inhibition of human HuH-7 cell growth in a cell viability assay.
# Ca-Ski = assay: cells; format: functional, cell-based; settings: Homo sapiens;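 also: cell viability assay measuring inhibition of Ca-Ski cell growth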
# Description: SANGER: Inhibition of human Ca-Ski cell growth in a cell viability assay.
# HCC1569 = assay: cells; format: functional, cell-based; settings: Homo sapiens;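 also: growth inhibition of human HCC1569 cells, read out with a cell viability assay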
# Description: SANGER: Inhibition of human HCC1569 cell growth in a cell viability assay.
# RL = assay: cells; format: functional, cell-based, Homo sapiens; settings: Homo sapiens, RL
# Description: SANGER: Inhibition of human RL cell growth in a cell viability assay.
# NCI-H1437 = assay: cells; format: functional, cell-based; settings: Homo sapiens;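 also: growth inhibition of human NCI-H1437 cells, read out by a cell viability assay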
# Description: SANGER: Inhibition of human NCI-H1437 cell growth in a cell viability assay.
# SW780 = assay: cells; format: functional, cell-based; settings: Homo sapiens;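 also: growth inhibition of the cells, read out with a cell viability assay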
# Description: SANGER: Inhibition of human SW780 cell growth in a cell viability assay.
# CPC-N = assay: cells; format: functional, cell-based, Homo sapiens; settings: Homo sapiens, CPC-N;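 also: growth inhibition of CPC-N cells, with a cell viability assay as the readout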
# Description: SANGER: Inhibition of human CPC-N cell growth in a cell viability assay.
# M14 = assay: cells; format: functional, cell-based; settings: Homo sapiens;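 also: growth inhibition of M14 cells, read out with a cell viability assay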
# Description: SANGER: Inhibition of human M14 cell growth in a cell viability assay.
# RO82-W-1 = assay: cells; format: functional, cell-based; settings: Homo sapiens;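 also: growth inhibition of human RO82-W-1 cells, measured with a cell viability assay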
# Description: SANGER: Inhibition of human RO82-W-1 cell growth in a cell viability assay.
# UACC-893 = assay: cells; format: functional, cell-based; settings: Homo sapiens
# Description: SANGER: Inhibition of human UACC-893 cell growth in a cell viability assay.
compound,measurement,setting,value
CCCCCCCCCCCC1=C(O)C(=O)C=C(O)C1=O [EMBELIN],IC50,HN,24.8 µM
same,IC50,HPAF-II,25.4 µM
same,IC50,T98G,19.6 µM
same,IC50,DBTRG-05MG,15.4 µM
same,IC50,EW-24,> 32 µM
same,IC50,NCI-H1693,> 32 µM
same,IC50,LU-99A,> 32 µM
same,IC50,ST486,8.3 µM
same,IC50,COR-L23,9.63 µM
same,IC50,CAL-85-1,7.81 µM
same,IC50,PC-14,15.6 µM
same,IC50,NCI-H1993,> 32 µM
same,IC50,COLO-792,> 32 µM
same,IC50,786-0,8.64 µM
same,IC50,KYSE-180,7.58 µM
same,IC50,KU-19-19,> 32 µM
same,IC50,SW756,> 32 µM
same,IC50,SW626,9.35 µM
same,IC50,Panc1005,> 32 µM
same,IC50,MIA PaCa-2,4.7 µM
same,IC50,JIYOYE,6.94 µM
same,IC50,SK-MEL3,16.2 µM
same,IC50,Daoy,5.46 µM
same,IC50,D-392MG,16.6 µM
same,IC50,NCI-H1963,> 32 µM
same,IC50,HT-29,7.52 µM
same,IC50,LCLC-103H cell line,9.06 µM
same,IC50,MEL-HO,5.11 µM
same,IC50,8305C,25.7 µM
same,IC50,SAOS-2,3.95 µM
same,IC50,SK-MEL-30,12.8 µM
same,IC50,NCI-H1573,14.2 µM
same,IC50,NCI-H1703,19.1 µM
same,IC50,EFO-21,15.6 µM
same,IC50,C3A,15.4 µM
same,IC50,KP-4,> 32 µM
same,IC50,EFM-19,4.91 µM
same,IC50,U2OS,> 32 µM
same,IC50,S-117,3.63 µM
same,IC50,NCI-H2009,11.9 µM
same,IC50,NCI-H748,> 32 µM
same,IC50,HOP-92,7.88 µM
same,IC50,HEC-1,13 µM
same,IC50,Hs-578T,11.1 µM
same,IC50,EVSA-T,> 32 µM
same,IC50,DOK,11.8 µM
same,IC50,C-33-A,> 32 µM
same,IC50,KYSE-450,17.7 µM
same,IC50,MKN-28,10 µM
same,IC50,TE-15,7.24 µM
same,IC50,MDA-MB-361,19.6 µM
same,IC50,FaDu,15.8 µM
same,IC50,Huh-7,> 32 µM
same,IC50,Ca-Ski,18.2 µM
same,IC50,HCC1569,10.3 µM
same,IC50,RL,> 32 µM
same,IC50,NCI-H1437,6.27 µM
same,IC50,SW780,> 32 µM
same,IC50,CPC-N,> 32 µM
same,IC50,M14,11 µM
same,IC50,RO82-W-1,> 32 µM
same,IC50,UACC-893,21.7 µM
C/C(=C\c1csc(C)n1)[C@@H]1C[C@@H]2O[C@]2(C)CCC[C@H](C)[C@H](O)[C@@H](C)C(=O)C(C)(C)[C@@H](O)CC(=O)O1 [PATUPILONE],IC50,HN,> 0.032 µM
same,IC50,HPAF-II,0.021 µM
same,IC50,T98G,0.02 µM
same,IC50,DBTRG-05MG,0.00586 µM
same,IC50,EW-24,> 0.032 µM
same,IC50,NCI-H1693,> 0.032 µM
same,IC50,LU-99A,0.00533 µM
same,IC50,ST486,0.000721 µM
same,IC50,COR-L23,0.00135 µM
same,IC50,CAL-85-1,0.000662 µM
same,IC50,PC-14,0.00421 µM
same,IC50,NCI-H1993,> 0.032 µM
same,IC50,COLO-792,> 0.032 µM
same,IC50,786-0,0.00011 µM
same,IC50,KYSE-180,0.000601 µM
same,IC50,KU-19-19,> 0.032 µM
same,IC50,SW756,> 0.032 µM
same,IC50,SW626,0.00198 µM
same,IC50,Panc1005,0.00112 µM
same,IC50,MIA PaCa-2,0.00131 µM
same,IC50,JIYOYE,0.00781 µM
same,IC50,SK-MEL3,0.0209 µM
same,IC50,Daoy,< 0.000125 µM
same,IC50,D-392MG,> 0.032 µM
same,IC50,NCI-H1963,0.012 µM
same,IC50,HT-29,0.000499 µM
same,IC50,LCLC-103H cell line,0.00031 µM
same,IC50,MEL-HO,0.00169 µM
same,IC50,8305C,0.00232 µM
same,IC50,SAOS-2,> 0.032 µM
same,IC50,SK-MEL-30,0.00134 µM
same,IC50,NCI-H1573,0.00642 µM
same,IC50,NCI-H1703,0.00776 µM
same,IC50,EFO-21,0.00982 µM
same,IC50,C3A,0.00342 µM
same,IC50,KP-4,0.000682 µM
same,IC50,EFM-19,0.0106 µM
same,IC50,U2OS,> 0.032 µM
same,IC50,S-117,> 0.032 µM
same,IC50,NCI-H2009,0.000862 µM
same,IC50,NCI-H748,> 0.032 µM
same,IC50,HOP-92,> 0.032 µM
same,IC50,HEC-1,0.00909 µM
same,IC50,Hs-578T,> 0.032 µM
same,IC50,EVSA-T,0.0307 µM
same,IC50,DOK,> 0.032 µM
same,IC50,C-33-A,0.00327 µM
same,IC50,KYSE-450,0.000267 µM
same,IC50,MKN-28,0.000462 µM
same,IC50,TE-15,0.000225 µM
same,IC50,MDA-MB-361,0.0165 µM
same,IC50,FaDu,0.0262 µM
same,IC50,Huh-7,0.00711 µM
same,IC50,Ca-Ski,0.00385 µM
same,IC50,HCC1569,0.0128 µM
same,IC50,RL,> 0.032 µM
same,IC50,NCI-H1437,0.000689 µM
same,IC50,SW780,> 0.032 µM
same,IC50,CPC-N,0.0107 µM
same,IC50,M14,> 0.032 µM
same,IC50,RO82-W-1,> 0.032 µM
same,IC50,UACC-893,> 0.032 µM

# Source: ChEMBL document CHEMBL1201861, “Genomics of Drug Sensitity in Cancer screening data, Wellcome Trust Sanger Institute”
